Reference: patent US20080214666A1, “Products and Methods Related to Mono-Methyl Branched-Chain Fatty Acids” (The Regents of the University of Colorado, priority 2004, published 2008)
“Also recorded” adds a separate entry of the source.

Key:
elo-5(RNAi) worms [1] = assay: GC analysis of FA composition in elo-5(RNAi) worms grown on supplemented plates; type: in vivo, Caenorhabditis elegans; details: for elongation of the supplement to C17ISO: added as food supplements; for incorporation of the supplement into lipids and its elongation (GC): elo-5(RNAi) worms on supplemented plates
Experimental: A mixed population of well-fed worms were washed off the plates with water, rinsed 3-4 times, and, after aspirating away water, were frozen at −80° C. Fatty Acid Methyl Esters and lipid extraction were performed as described (Miquel and Browse 1992). GC was performed on the HP6890N (Agilent) equipped with a DB-23 column (30 m×250 μm×0.25 μm) (Kniazeva, Sieber et al. 2003). Each experiment was repeated at least five times. Average values and standard deviations were then calculated for each of the compounds in the experiments.
(§1) Ninety μl of the 4 mM solution of FA (Sigma) in 1% NP40 or 10% DMSO was dropped on the side of the bacterial lawn that contained either elo-5 dsRNA-producing plasmid or the control HT115 vector. Two synchronized young adults were plated and their progeny was scored 4 and 5 days later. Each experiment was performed in at least 30 replicates. For recovering elo-5(RNAi) worms from L1 arrest, wild type adults were placed on the elo-5(RNAi) plates. Four days later, their progeny was removed and eggs of the next generation were left on the plates. Hatched L1 were kept for two or four days before transferring as agar chunks to new elo-5(RNAi) plates. FA supplements were added to spots next to the chunks. Ten plates were prepared for each FA supplement. Control plates contained no supplements. […] Neither C15 nor C17 mmBCFA added to let-418(RNAi) plates modified the expected phenotype.

elo-5(RNAi) worms [2] = assay: Phenotype rescue of elo-5(RNAi) worms using FA supplements; type: in vivo, Caenorhabditis elegans; details: for plates on which the supplement rescued the elo-5 RNAi defects: FA supplement (90 μl of 4 mM) on elo-5(RNAi) plates, progeny scored 4 and 5 days later, rescued/total plates; for rescue of mmBCFA deficiency: added as food supplements; for plates with partial rescue of the elo-5 RNAi defects: FA supplement on elo-5(RNAi) plates, partially rescued/total plates; for rescue of elo-5(RNAi) phenotype: animals grown on elo-5 RNAi plates with supplement or mmBCFA-producing bacteria
Experimental: The RNAi feeding strain was E. coli HT115 transformed with either empty pPD129.36 vector (controls) or with dsRNA-producing constructs. Unless stated differently, wild type N2 Bristol animals were plated as synchronized adults.
Ninety μl of the 4 mM solution of FA (Sigma) in 1% NP40 or 10% DMSO was dropped on the side of the bacterial lawn that contained either elo-5 dsRNA-producing plasmid or the control HT115 vector. Two synchronized young adults were plated and their progeny was scored 4 and 5 days later. Each experiment was performed in at least 30 replicates. For recovering elo-5(RNAi) worms from L1 arrest, wild type adults were placed on the elo-5(RNAi) plates. Four days later, their progeny was removed and eggs of the next generation were left on the plates. Hatched L1 were kept for two or four days before transferring as agar chunks to new elo-5(RNAi) plates. FA supplements were added to spots next to the chunks. Ten plates were prepared for each FA supplement. Control plates contained no supplements.

elo-5(gk208) = assay: Rescue, growth and maturation of the elo-5(gk208) mutant on supplemented plates; type: in vivo, C. elegans
[3] = Elongation of exogenous short chain mmBCFA in cultured human cells; type: cell-based
mouse C2C12 (myoblasts) = assay: Elongation of exogenous short chain mmBCFA in cultured mouse cells; type: cell-based
N2 = assay: Growth and maturation of wild type N2 on supplemented plates; type: in vivo, C. elegans
human cancer = details: Yang, Liu et al. 2000; cited from earlier work
[4] = test system: elo-5(RNAi) L1-arrested worms; assay: Recovery of elo-5(RNAi) worms from L1 arrest with FA supplements; type: in vivo, Caenorhabditis elegans
Experimental: as §1

lpd-1(RNAi) animals = assay: Rescue of lpd-1(RNAi) feeding defects by supplement; type: in vivo, C. elegans; details: supplement added to the plates
[5] = test system: mmBCFA deficient early L1 larvae; assay: Feeding of mmBCFA deficient early L1 larvae on plates without bacteria; type: in vivo, C. elegans; details: supplements on the plates without bacteria

Structure (SMILES): COC(=O)CCCCCCCCCC(C)C [C13ISO-methyl ester]
- elongation of the supplement to C17ISO (elo-5(RNAi) worms [1]): can be efficiently elongated to C17ISO

Structure (SMILES): CC(C)CCCCCCCCCC(=O)O [C13ISO]
- plates on which the supplement rescued the elo-5 RNAi defects (elo-5(RNAi) worms [2]): 0/30
- rescue of mmBCFA deficiency (elo-5(RNAi) worms [2]): rescue mmBCFA deficiency
- egg laying and survival on the second day of adulthood (elo-5(gk208); elo-5(gk208), 0.75 mM and 1 mM): fail to lay eggs and die a few days later
- growth rate (elo-5(gk208); elo-5(gk208), 0.75 mM and 1 mM): grow as fast as N2 without supplements
- developmental stage on forth day after hatching (elo-5(gk208); elo-5(gk208), 10 mM): remain at L4 or young adults stages
- effect on growth and maturation (elo-5(gk208); elo-5(gk208), 2.5-10 mM): slowing at the L4 stage accompanied by a delay in the adult maturation
- brood size (elo-5(gk208); elo-5(gk208), high concentrations (2.5-10 mM)): maintain wild type brood size
- animals that reach adulthood and have viable progeny (elo-5(gk208); supplement concentration above 0.75 mM): 100%
- rescue from elo-5(gk208) phenotype (elo-5(gk208); supplement concentration range 0-0.5 mM): no rescue; also recorded: does not rescue
- elongation into C15ISO and C17ISO in vitro ([3]; RIN-M5F (pancreatic beta cells)): able to elongate
- elongation into C15ISO and C17ISO in vitro ([3]; SY-5Y (neuroblastoma)): able to elongate
- elongation into C15ISO and C17ISO in vitro (mouse C2C12 (myoblasts)): able to elongate
- growth rate (N2; N2, 0.75 mM and 1 mM): grow as fast as N2 without supplements
- developmental stage on forth day after hatching (N2; N2, 10 mM): remain at L4 or young adults stages
- effect on growth and maturation (N2; N2, 2.5-10 mM): slowing at the L4 stage accompanied by a delay in the adult maturation
- brood size (N2; N2, high concentrations (2.5-10 mM)): maintain wild type brood size
- ability to modulate growth rate between L4 and adult stage (N2; dietary supplement): modulate growth rate between L4 and adult stage

Structure (SMILES): CC(C)CCCCCCCCCCCC(=O)O [C15ISO, 13-methyl myristic acid]
- plates with partial rescue of the elo-5 RNAi defects (elo-5(RNAi) worms [2]): 23/38
- rescue of mmBCFA deficiency (elo-5(RNAi) worms [2]): rescue mmBCFA deficiency
- rescue of elo-5(RNAi) phenotype (elo-5(RNAi) worms [2]): partially rescued
- incorporation of the supplement into lipids and its elongation (GC) (elo-5(RNAi) worms [1]): no accumulation of C15ISO or its elongation to C17ISO was detectable
- effect on human cancer (human cancer): growth inhibitor of human cancer where it selectively induces apoptosis

Structure (SMILES): COC(=O)CCCCCCCCCCCC(C)C [C15ISO-methyl ester]
- elongation of the supplement to C17ISO (elo-5(RNAi) worms [1]): can be efficiently elongated to C17ISO

Structure (SMILES): CCC(C)CCCCCCCCCCC(=O)O (stereo not shown) [C15anteISO]
- plates with partial rescue of the elo-5 RNAi defects (elo-5(RNAi) worms [2]): 20/28

Structure (SMILES): CCCCCCCCCCCCCCCC(=O)O [C16:0, palmitic acid, reference compound]
- plates on which the supplement rescued the elo-5 RNAi defects (elo-5(RNAi) worms [2]): 0/30

Structure (SMILES): CCCCCC/C=C\CCCCCCCC(=O)O [C16:1 n7, reference compound]
- plates on which the supplement rescued the elo-5 RNAi defects (elo-5(RNAi) worms [2]): 0/30

Structure (SMILES): CCCCCCCCCCCCCCCCC(=O)O [C17:0, reference compound]
- plates on which the supplement rescued the elo-5 RNAi defects (elo-5(RNAi) worms [2]): 0/30

Structure (SMILES): CC(C)CCCCCCCCCCCCCC(=O)O [C17ISO, 15-methyl hexadecanoic acid]
- plates on which the supplement rescued the elo-5 RNAi defects (elo-5(RNAi) worms [2]): 52/60
- rescue of mmBCFA deficiency (elo-5(RNAi) worms [2]): rescue mmBCFA deficiency
- rescue of elo-5(RNAi) phenotype (elo-5(RNAi) worms [2]): fully rescued
- arrested L1 rescued to full growth and proliferation ([4]; four-day-old L1): ~1%
- arrested L1 rescued to full growth and proliferation ([4]; two day-arrested L1): about 50%
- incorporation of the supplement into lipids and its elongation (GC) (elo-5(RNAi) worms [1]): significantly incorporated into lipids
- growth of homozygous elo-5(gk208) on supplemented plates (elo-5(gk208); plates supplemented or seeded): grew normally; also recorded: grew without any obvious morphological defects
- rescue of lpd-1 RNAi feeding defects (slow growth, morphological abnormalities, egg-laying defects) (lpd-1(RNAi) animals): did not significantly rescue these defects
- development of early L1 arrested larvae [5]: able to elongate and proceed to the mid-L1 stage

Structure (SMILES): CCC(C)CCCCCCCCCCCCC(=O)O (stereo not shown) [C17anteISO, 14-methyl hexadecanoic acid]
- plates on which the supplement rescued the elo-5 RNAi defects (elo-5(RNAi) worms [2]): 58/60
- rescue of elo-5(RNAi) phenotype (elo-5(RNAi) worms [2]): fully rescued
- arrested L1 rescued to full growth and proliferation ([4]; four-day-old L1): ~1%
- arrested L1 rescued to full growth and proliferation ([4]; two day-arrested L1): about 50%
- incorporation of the supplement into lipids and its elongation (GC) (elo-5(RNAi) worms [1]): significantly incorporated into lipids

Structure (SMILES): CCCCC/C=C\C/C=C\C/C=C\CCCCC(=O)O [C18:3 n6, reference compound]
- plates on which the supplement rescued the elo-5 RNAi defects (elo-5(RNAi) worms [2]): 0/30

Structure (SMILES): CC(C)CCCCCCCCCCCCCCC(=O)O [C18ISO, reference compound]
- plates on which the supplement rescued the elo-5 RNAi defects (elo-5(RNAi) worms [2]): 0/30

Structure (SMILES): CC(C)CCCCCCCCCCCCCCCC(=O)O [C19ISO, reference compound]
- plates on which the supplement rescued the elo-5 RNAi defects (elo-5(RNAi) worms [2]): 0/30

Structure (SMILES): CC(C)CCCC(C)CCCC(C)CCCC(C)CC(=O)O (stereo not shown) [phytanic acid, reference compound]
- plates on which the supplement rescued the elo-5 RNAi defects (elo-5(RNAi) worms [2]): 0/30
